# Reference: paper PMC7516806, “Hybrid Antimicrobial Peptide Targeting Staphylococcus aureus and Displaying Anti-infective Activity in a Murine Model” (Frontiers in Microbiology, 2020)
# Positions of bridges follow the written chain, without caps; N, C: chain ends. Residues, ends and D or L forms follow the SMILES beside them.
# What was measured:
# RAW 264.7 cells = experiment: Cytotoxicity, MTT dye reduction assay; format: cell-based, murine
# Protocol: The cytotoxicity of peptides was determined by healthy human erythrocytes and the murine macrophage cell line RAW 264.7 via a hemolysis assay and MTT dye reduction assay, respectively ([Wang et al., 2018]). In the hemolysis assay, fresh hRBCs from healthy people were centrifuged for 5 min at 1,000 × g and then washed three times with PBS (pH = 7.2). The 100 μL erythrocyte suspension and peptides were incubated for 1.5 h in an incubator at 37°C. The 96-well plates were centrifuged at 1,000 × g for 5 min, and the supernatants were carefully aspirated. The absorbance at 570 nm indicated the leakage of hemoglobin. The hRBCs in the PBS sample was used as the negative control, and 0.1% Triton X-100 addition served as the positive control. In the MTT dye reduction assay, 1.0–2.0 × 10^5 cells were plated in 96-well plates and then treated with various concentrations of peptides for 4 h at 37°C in a 5% CO2 incubator. Subsequently, 50 μL of MTT was added to the plated cells at a final concentration of 0.5 mg/mL and incubated for 4 h. Then, the cells were centrifuged at 1000 × g for 5 min, and the supernatants were discarded. Formazan crystals were dissolved in 150 μL of DMSO, and the OD570 nm was measured using a microplate reader (TECAN GENios F129004; TECAN, Austria). The experiment was repeated three times independently.
# E. coli 25922 = experiment: MIC, modified microtiter dilution; format: cell-based, Escherichia coli; settings: MHB, 2–7 × 10^5 CFU/ml, 37°C, 24 h, lowest concentration with no turbidity, at least three independent repeats
# From the text: (§1) The experiment was repeated at least three times independently.
# E. coli UB1005 = experiment: MIC, modified microtiter dilution; format: cell-based, Escherichia coli; settings: MHB, 2–7 × 10^5 CFU/ml, 37°C, 24 h, no turbidity, at least three independent repeats
# From the text: as §1
# S. aureus 29213 = experiment: Cytoplasmic membrane depolarization, diSC3-5; format: cell-based, Staphylococcus aureus; settings: 0.4 μM diSC3-5, 100 mM KCl, ex 622 nm, em 670 nm
# Protocol: The dye diSC3-5 was employed to assay cytoplasmic membrane depolarization activities ([Shao et al., 2018]). S. aureus 29213 was diluted to an OD600 = 0.05 after washing three times with buffer (5 mM HEPES, 5 mM glucose, pH 7.4) when the bacteria grew to mid-log phase. Then, diSC3-5 at a final concentration of 0.4 μM was added into the medium and incubated for 1–1.5 h. The final concentration of 100 mM KCl was then added to the solution for 15 min. The peptides were added to 12-well plates, which were filled with 2 mL of cell suspension. An F-4500 fluorescence spectrophotometer (Hitachi, Japan) was employed to measure the fluorescence value at an excitation wavelength of 622 nm and an emission wavelength of 670 nm. Maximal augmentation was monitored, and the fluorescence of the mixture of bacteria and dye served as the blank control.
# L. rhamnosus 1.0911 = experiment: MIC, modified microtiter dilution; format: cell-based, Lactobacillus rhamnosus; settings: 2–7 × 10^5 CFU/ml, 37°C, 24 h, no turbidity, at least three independent repeats
# From the text: as §1
# [1] = test system: lipoteichoic acid (LTA) from S. aureus; experiment: LTA binding, BODIPY-TR-cadaverine displacement; set-up: species or system Staphylococcus aureus; settings: comparison among peptides, BC displacement
# Protocol: Peptides binding to LTA were assayed using the BC (Sigma, United States) displacement method ([Zorko and Jerala, 2008]). The final concentration of 50 μg/mL LTA from S. aureus was incubated with 5 μg/mL BC in Tris-HCl buffer (50 mM, pH 7.4) for 4 h in a shaking incubator at 37°C. The peptides were then serially diluted in Tris–HCl buffer, and an equal volume solution was added to the 96-well plates. The fluorescence was measured (excitation λ = 580 nm, emission λ = 620 nm) on a spectrofluorophotometer (Infinite 200 Pro, Tecan, China). The experiment was conducted three times independently.
# GM-CSF = experiment: Cytokine ELISA in infected skin; format: in vivo, ICR mice; settings: 24 h after treatment, P < 0.05
# Protocol: (§2) To assess the antimicrobial activity of the peptide in vivo, a mouse model of subcutaneous infection was used ([Huang et al., 2011a]; [Omolo et al., 2017]). Female Institute for Cancer Research (ICR) mice (SPF, 20–25 g) were purchased from WeiTonglihua Co., Ltd. (Beijing, China), with eight animals per group. The mice were shaved on their backs and disinfected. S. aureus 29213 (100 μL) at a concentration of 1 × 10^8 CFU/mL was injected into the superficial skin of the mice. The mice were divided into four groups (n = 4), as follows: S. aureus + saline, S. aureus + S2 (80× MIC, 100 μL), S. aureus + vancomycin (Van) (80× MIC, 100 μL), and saline. S2, vancomycin, and saline were injected at the same site 1 h after infection. The mice were monitored over 24 h in an environmentally controlled room at 25 ± 1°C and 55 ± 5% relative humidity with a 12 h light/dark cycle.
# (§3) The mice were treated as described above. Skin samples were treated according to the manufacturer’s instructions. The levels of tumor necrosis factor-alpha (TNF-α), interleukin-6 (IL-6), and granulocyte-macrophage colony-stimulating factor (GM-CSF) in infected skin were measured using enzyme-linked immunosorbent assay (ELISA) kits following the manufacturer’s instructions.
# TNF-α = experiment: Cytokine ELISA in infected skin; format: in vivo, ICR mice; settings: 24 h after treatment, P < 0.05
# Protocol: as §2, §3
# IL-6 = experiment: Cytokine ELISA in infected skin; format: in vivo, ICR mice; settings: 24 h after treatment, P < 0.05
# Protocol: as §2, §3
# mouse skin = experiment: Skin toxicity in vivo, TUNEL assay; set-up: species or system ICR mice; settings: 100 μL at 80 × MIC injected into skin, 24 h
# Protocol: Anesthetized mice were shaved on their backs and disinfected. A total of 100 μL of S2 (80 × MIC) was injected into the skin. Equal volumes of saline and 100% DMSO were used as the negative and positive controls, respectively. The skin was removed from the injection sites for tissue processing after 24 h. OCT-embedded slides were stained using the DeadEnd^TM Fluorometric TUNEL System for the detection of apoptotic cells and counterstained with 4,6-diamidino-2-phenylindole (DAPI). Photographs were taken using a microscope ([Huang et al., 2011a]).
# P. aeruginosa 27853 = experiment: MIC, modified microtiter dilution; format: cell-based, Pseudomonas aeruginosa; settings: MHB, 2–7 × 10^5 CFU/ml, 37°C, 24 h, no turbidity, at least three independent repeats
# From the text: as §1
structure (smiles),measurement,setting,value
CC(C)C[C@H](NC(=O)[C@H](CC(C)C)NC(=O)[C@H](Cc1c[nH]c2ccccc12)NC(=O)[C@H](Cc1c[nH]c2ccccc12)NC(=O)[C@H](Cc1c[nH]c2ccccc12)NC(=O)[C@H](CCCNC(=N)N)NC(=O)[C@@H]1CSSC[C@H](N)C(=O)N[C@@H](C)C(=O)N[C@@H](CO)C(=O)N[C@@H](Cc2ccc(O)cc2)C(=O)N[C@@H](Cc2ccccc2)C(=O)N1)C(N)=O [Peptide S2] (H-CASYFCRWWWLL-NH2; disulfide 1-6; N-terminus assumed),killing activity against RAW 264.7 cells,RAW 264.7 cells,no killing activity against RAW 264.7 cells
same,RAW 264.7 cell survival rate,"RAW 264.7 cells; highest concentration of 128 μM, 4 h, three independent repeats",105%
same,MIC E. coli 25922,E. coli 25922,>64 µM
same,MIC E. coli UB1005,E. coli UB1005,>64 µM
same,cytoplasmic membrane depolarization (diSC3-5 fluorescence),S. aureus 29213,rapid fluorescence intensity increase
same,MIC L. rhamnosus 1.0911,L. rhamnosus 1.0911,>64 µM
same,relative binding capacity to LTA,[1],stronger binding capacity to LTA than S1 and S3
same,GM-CSF levels in infected skin versus control group and Van group,GM-CSF,significantly higher
same,TNF-α generation in infected skin,TNF-α,suppressed
same,IL-6 generation in infected skin,IL-6,suppressed
same,apoptotic cells in mouse skin (TUNEL),mouse skin,no apparent epidermal apoptosis
same,MIC P. aeruginosa 27853,P. aeruginosa 27853,>64 µM
